Read-outs that look alike come from different tables or passages of the source.
Columns and labels:
KIF18A = KIF18A (Homo sapiens (Human), UniProt Q8NI77); experiment: KIF18A ATPase activity under tubulin stimulation (ADP-Glo assay); assay type: biochemical; settings: KIF18A 30 nM, ATP 150 μM, pig microtubules
OVCAR-3 cells = experiment: OVCAR-3 cell proliferation (Cell Titer-Glo, 10 days); assay type: cell-based, human
Summary of the method: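 400 cells per well were seeded onto pre-dispensed compound (final 0.12 nM to 10 μM) in RPMI-1640 with 20% FBS and insulin, then co-cultured for 10 days. Viability was read as Cell Titer-Glo luminescence, inhibition was taken against 0.1% DMSO control, and IC50 came from nonlinear concentration-inhibition regression.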

HT-29 cells = experiment: HT-29 cell proliferation (Cell Titer-Glo, 6 days); assay type: cell-based
Protocol: The inhibitory effect on the KIF18A target by the compounds of the present disclosure was evaluated by testing the inhibitory effect on proliferation of HT-29 cells by the compounds of the present disclosure.
HT-29 (ATCC, HTB-38) cells were cultured in McCoy's 5a complete medium (Gibco, 12330-031) containing 10% fetal bovine serum (Gibco, 10099-141C), 100 U penicillin and […] streptomycin (Gibco, 15140-122). The Promega kit Cell Titer-Glo (Promega: G7572) was used in this method for test. • 1. HT-29 cells were cultured in T75 cell flasks (Corning, 430641) and the medium was placed in a 37° C., 5% CO2 incubator. Cells were passaged when reaching a cell density of 70%-80%, approximately twice per week. • 2. To perform the experiment, the test compounds were dissolved in DMSO to prepare a 10 mM stock solution, and the test compounds were added to the 384-well cell test plate (Corning, 3765) at the predetermined concentration using ECHO. • 3. The cell culture flask was taken out, the medium was removed, and the cells were rinsed with PBS. Then 2 mL of trypsin (with 0.25% EDTA) was added, and the flask was placed in the incubator for digestion for 4 minutes. • 4. Digestion was stopped by adding 4 mL of complete medium and the cell suspension was transferred to a centrifuge tube and centrifuged at 1000 rpm for 4 minutes. • 5. The cells were resuspended in 6 mL of complete medium, followed by cell counting. The cell density was adjusted to 4,170 cells/mL, and the cells were added to a 384-well plate at 60 μL/well. • 6. The 384-well plate was centrifuged at 500 rpm for 1 minute, and then placed in a 37° C., 5% CO2 incubator for 6 days of cultivation. • 7. Six days later, the cell culture plate was equilibrated for 10 minutes at room temperature, 25 μL of Cell Titer-Glo was added to each well, and the mixture was shaken and mixed well and let stand for 5 minutes. The luminescence values for samples in various wells were read using a microplate reader in Luminescence mode.
The percentage of inhibition of cell proliferation by the test compound at each concentration was calculated by comparing with the values of the control group (0.3% DMSO). The IC50 values of the compounds were obtained by concentration-inhibition rate nonlinear regression analysis of the test compounds using GraphPad Prism 9.

PK study in ICR mice = assay type: in vivo, mouse; settings: both sexes, mouse, plasma, route and dose not given; for AUC: read-out: AUC; for Cmax: read-out: Cmax
Protocol: 6 ICR mice (male/female) were divided into two groups, administered orally and intravenously, respectively, with 3 mice/group. The mice were fasted for 10-14 hours prior to dosing with free access to water.
The test compound was weighed according to the administration dose, and prepared into a dose formulation at appropriate concentrations (for rats and mice, intravenous and oral administration at a volume of 5 mL/kg and 10 mL/kg, respectively), wherein the intravenous injection was a clear solution, and the oral preparation was a clear solution or a homogeneous suspension.
Animals were dosed by intravenous injection and oral gavage, and blood samples were collected at 0.033, 0.083, 0.25, 0.5, 1, 2, 4, 8, and 24 h after intravenous administration and 0.083, 0.25, 0.5, 1, 2, 4, 6, 8, and 24 h after oral administration. Whole blood was centrifuged at 6800 g for 6 min at 4° C. and the top plasma was stored in a −80° C. freezer for later analysis.
The DMSO stock solution of the test compound was diluted into a series of working solutions with a methanol or an acetonitrile solution, and added to a blank plasma matrix, and standard curves were generated and quality control samples were prepared. An appropriate volume of the plasma sample was taken and a suitable multiple of methanol or acetonitrile containing an internal standard was added for protein precipitation based on the response. After centrifugation of all samples at 18000 g for 10 min at 4° C., an appropriate amount of supernatant was taken for LC-MS/MS injection analysis.
Drug concentration-time curves in plasma were plotted according to test concentrations, and pharmacokinetic parameters were calculated using noncompartmental analysis by WinNonlin software, including: half-life (T½), area under the concentration-time curve from time zero to time t (AUCO-t), clearance (CL), volume of distribution at steady state (Vss) and bioavailability (F), with some of the test results shown in Table 4.

Sequence of KIF18A (Q8NI77 whole entry): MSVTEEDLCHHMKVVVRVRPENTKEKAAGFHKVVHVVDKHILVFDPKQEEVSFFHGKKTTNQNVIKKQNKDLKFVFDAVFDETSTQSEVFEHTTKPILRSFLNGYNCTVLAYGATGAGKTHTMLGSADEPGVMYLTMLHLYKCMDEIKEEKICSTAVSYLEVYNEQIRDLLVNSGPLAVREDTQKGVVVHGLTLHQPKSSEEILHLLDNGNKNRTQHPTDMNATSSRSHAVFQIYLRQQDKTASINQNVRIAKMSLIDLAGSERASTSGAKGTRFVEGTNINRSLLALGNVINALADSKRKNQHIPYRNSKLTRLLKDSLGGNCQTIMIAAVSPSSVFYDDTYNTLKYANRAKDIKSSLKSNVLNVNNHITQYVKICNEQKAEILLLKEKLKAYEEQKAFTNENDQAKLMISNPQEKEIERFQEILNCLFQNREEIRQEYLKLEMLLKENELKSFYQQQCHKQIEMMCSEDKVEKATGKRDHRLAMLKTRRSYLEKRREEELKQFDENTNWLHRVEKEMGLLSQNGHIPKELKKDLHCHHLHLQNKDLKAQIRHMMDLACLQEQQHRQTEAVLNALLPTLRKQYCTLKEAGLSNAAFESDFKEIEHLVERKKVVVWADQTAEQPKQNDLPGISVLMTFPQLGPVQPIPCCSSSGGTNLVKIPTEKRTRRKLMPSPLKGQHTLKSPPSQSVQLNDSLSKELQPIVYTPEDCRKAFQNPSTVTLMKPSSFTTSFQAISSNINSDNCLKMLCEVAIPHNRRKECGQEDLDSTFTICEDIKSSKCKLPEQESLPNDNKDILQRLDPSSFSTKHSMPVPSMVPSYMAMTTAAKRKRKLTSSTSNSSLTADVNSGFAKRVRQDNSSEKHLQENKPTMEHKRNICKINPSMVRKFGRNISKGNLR
Sequence of KIF18A (P02550 whole entry partner): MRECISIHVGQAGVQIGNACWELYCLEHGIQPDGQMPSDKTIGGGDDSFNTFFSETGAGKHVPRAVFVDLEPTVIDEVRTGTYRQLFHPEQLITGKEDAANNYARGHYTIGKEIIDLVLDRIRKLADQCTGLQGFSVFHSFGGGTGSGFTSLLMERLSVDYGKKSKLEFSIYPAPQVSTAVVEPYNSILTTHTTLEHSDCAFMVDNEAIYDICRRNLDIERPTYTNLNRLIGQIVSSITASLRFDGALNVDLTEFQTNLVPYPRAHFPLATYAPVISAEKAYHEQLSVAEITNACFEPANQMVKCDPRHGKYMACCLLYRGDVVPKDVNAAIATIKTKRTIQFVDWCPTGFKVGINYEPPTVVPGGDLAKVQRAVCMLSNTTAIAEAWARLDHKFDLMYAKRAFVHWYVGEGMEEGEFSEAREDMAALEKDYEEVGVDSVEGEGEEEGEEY
Sequence of KIF18A (P02554 whole entry partner): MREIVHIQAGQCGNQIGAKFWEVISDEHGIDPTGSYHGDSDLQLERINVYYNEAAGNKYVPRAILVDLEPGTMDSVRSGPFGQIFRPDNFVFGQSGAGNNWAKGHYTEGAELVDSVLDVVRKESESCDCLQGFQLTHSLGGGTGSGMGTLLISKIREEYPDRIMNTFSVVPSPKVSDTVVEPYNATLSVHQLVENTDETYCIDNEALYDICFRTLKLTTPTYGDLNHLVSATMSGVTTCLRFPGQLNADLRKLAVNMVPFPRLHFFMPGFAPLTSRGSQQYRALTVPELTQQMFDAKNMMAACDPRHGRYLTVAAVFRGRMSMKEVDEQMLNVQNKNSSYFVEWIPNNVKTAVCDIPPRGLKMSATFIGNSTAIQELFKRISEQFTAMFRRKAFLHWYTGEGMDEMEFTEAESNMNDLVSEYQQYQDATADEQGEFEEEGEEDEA

## O=C(Nc1ccnc2c1cc1n2CCC(F)(F)C1)c1ccc(NS(=O)(=O)CCO)cc1N1CCC(=C(F)F)CC1 [Example 376]
KIF18A
  IC50: ≤ 50 nM
OVCAR-3 cells
  IC50: ≤ 50 nM
HT-29 cells
  IC50: 200 to 1000 nM

## O=C(Nc1ccnc2c1cc1n2CCC(F)(F)C1)c1ccc(NS(=O)(=O)CCO)cc1N1CCC2(CC1)CC2 [Example 380, N-(7,7-difluoro-6,7,8,9-tetrahydropyridin[3,2-b]indolizin-4-yl)-4-((2-hydroxyethyl)sulfonamido)-2-(6-azaspiro[2.5]oct-6-yl)benzamide]
KIF18A
  IC50: ≤ 50 nM
OVCAR-3 cells
  IC50: ≤ 50 nM
HT-29 cells
  IC50: ≤ 200 nM

## CC1(C)OCCn2c1cc1c(NC(=O)c3ccc(NS(=O)(=O)CCO)cc3N3CCC4(CC3)CC4)cccc12 [Compound 396, N-(1,1-dimethyl-3,4-dihydro-1H-[1,4]oxazino[4,3-a]indol-9-yl)-4-((2-hydroxyethyl)sulfonamido)-2-(6-azaspiro[2.5]octan-6-yl)benzamide]
KIF18A
  IC50: 50 to 500 nM
OVCAR-3 cells; Homo sapiens, OVCAR-3, 240 h
  IC50: ≤ 50 nM
HT-29 cells; Homo sapiens, HT-29, 144 h
  IC50: ≤ 200 nM

## [2H]C([2H])([2H])OC1c2cc3c(NC(=O)c4ccc(NS(=O)(=O)CCO)cc4N4CCC5(CC4)CC5)cccc3n2CCC1(F)F (single isomer, unassigned) [Compound 385-P2, N-(8,8-difluoro-9-(methoxy-d3)-6,7,8,9-tetrahydropyridino[1,2-a]indol-1-yl)-4-((2-hydroxyethyl)sulfonamido)-2-(6-azaspiro[2.5]oct-6-yl)benzamide]
OVCAR-3 cells
  IC50: ≤ 50 nM
HT-29 cells
  IC50: ≤ 200 nM

## O=C(Nc1cccc2c1cc1n2CCC(F)(F)C1O)c1ccc(NS(=O)(=O)CCO)cc1N1CCC2(CC1)CC2 (single isomer, unassigned) [Compound 384-P1, N-(8,8-difluoro-9-hydroxy-6,7,8,9-tetrahydropyridino[1,2-a]indol-1-yl)-4-((2-hydroxyethyl)sulfonamido)-2-(6-azaspiro[2.5]oct-6-yl)benzamide]
KIF18A
  IC50: ≤ 50 nM
PK study in ICR mice
  AUC: 1290 ng·h/mL
  Cmax: 366 ng/mL
OVCAR-3 cells; Homo sapiens, OVCAR-3, 240 h
  IC50: ≤ 50 nM
HT-29 cells; Homo sapiens, HT-29, 144 h
  IC50: ≤ 200 nM

## [2H]C([2H])([2H])OC1c2cc3c(NC(=O)c4ccc(NS(=O)(=O)CCO)cc4N4CCC(=C(F)F)CC4)cccc3n2CCC1(F)F (centres unmarked) [Compound 386, N-(8,8-difluoro-9-(methoxy-d3)-6,7,8,9-tetrahydropyridino[1,2-a]indol-1-yl)-2-(4-(difluoromethylene)piperidin-1-yl)-4-((2-hydroxyethyl)sulfonamido)benzamide]
KIF18A
  IC50: 50 to 500 nM
OVCAR-3 cells
  IC50: 50 to 500 nM
HT-29 cells; Homo sapiens, HT-29, 144 h
  IC50: 200 to 1000 nM

## CC1=CCCn2c1cc1c(NC(=O)c3ccc(NS(=O)(=O)CCO)cc3N3CCC4(CC3)CC4)cccc12 [Compound 410, 4-(2-hydroxyethyl)sulfonamido-N-(9-methyl-6,7-dihydropyridino[1,2-a]indol-1-yl)-2-(6-azaspiro[2.5]octan-6-yl)benzamide]
KIF18A
  IC50: 50 to 500 nM
PK study in ICR mice
  AUC: 16400 ng·h/mL
  Cmax: 2790 ng/mL
OVCAR-3 cells; Homo sapiens, OVCAR-3, 240 h
  IC50: ≤ 50 nM
HT-29 cells; Homo sapiens, HT-29, 144 h
  IC50: ≤ 200 nM

## [2H]C([2H])([2H])OC1c2cc3c(NC(=O)c4ccc(NS(=O)(=O)CCO)cc4N4CCC5(CC4)CC5)cccc3n2CCC1(F)F (centres unmarked) [Compound 385, N-(8,8-difluoro-9-(methoxy-d3)-6,7,8,9-tetrahydropyridino[1,2-a]indol-1-yl)-4-((2-hydroxyethyl)sulfonamido)-2-(6-azaspiro[2.5]oct-6-yl)benzamide]
KIF18A
  IC50: 50 to 500 nM
OVCAR-3 cells
  IC50: ≤ 50 nM
HT-29 cells; Homo sapiens, HT-29, 144 h
  IC50: ≤ 200 nM

## O=C(Nc1cccc2c1cc1n2CCC(F)(F)C1O)c1ccc(NS(=O)(=O)CCO)cc1N1CCC2(CC1)CC2 (single isomer, unassigned) [Compound 384-P2, N-(8,8-difluoro-9-hydroxy-6,7,8,9-tetrahydropyridino[1,2-a]indol-1-yl)-4-((2-hydroxyethyl)sulfonamido)-2-(6-azaspiro[2.5]oct-6-yl)benzamide]
KIF18A
  IC50: 50 to 500 nM
OVCAR-3 cells
  IC50: ≤ 50 nM
HT-29 cells
  IC50: ≤ 200 nM

## [2H]C([2H])([2H])OC1c2cc3c(NC(=O)c4ccc(NS(=O)(=O)CCO)cc4N4CCC(=C(F)F)CC4)cccc3n2CCC1(F)F (single isomer, unassigned) [Compound 386-P2, N-(8,8-difluoro-9-(methoxy-d3)-6,7,8,9-tetrahydropyridino[1,2-a]indol-1-yl)-2-(4-(difluoromethylene)piperidin-1-yl)-4-((2-hydroxyethyl)sulfonamido)benzamide]
KIF18A
  IC50: ≤ 50 nM
OVCAR-3 cells
  IC50: 50 to 500 nM
HT-29 cells
  IC50: ≤ 200 nM

## O=C(Nc1cccc2c1cc1n2CC2(CC2)OC1)c1ccc(NS(=O)(=O)CCO)cc1N1CCC(=C(F)F)CC1 [Example 485, 2-(4-(difluoromethylene)piperidin-1-yl)-4-((2-hydroxyethyl)sulfonamido)-N-(1′H,4′H-spiro[cyclopropane-1,3′-[1,4]oxazino[4,3-a]indole]-9′-yl)benzamide]
KIF18A
  IC50: ≤ 50 nM
PK study in ICR mice
  AUC: 33300 ng·h/mL
  Cmax: 3740 ng/mL
OVCAR-3 cells; Homo sapiens, OVCAR-3, 240 h
  IC50: 50 to 500 nM
HT-29 cells; Homo sapiens, HT-29, 144 h
  IC50: 200 to 1000 nM

Reference: patent publication US20260070887A1 (Shenzhen Zhongge Biological Technology Co., Ltd., priority 2022, published 2026)
